Assay results reported in PubChem BioAssay AID540332 (The Scripps Research Institute Molecular Screening Center, 2011).
Activity calls are given as the source filed them. The rule behind the calls is not given here.

What was measured:
Experiment in all cases: selectivity profile across receptors and CYP450s – biochemical, Ricerca HitProfilingScreen, CYP450, set 2, selectivity assay for S1P4 agonist project, profiling panel (AID 540332)
[1] = target: 5-hydroxytryptamine receptor 2B (Homo sapiens) (UniProt P41595); details: Serotonin (5-Hydroxytryptamine) 5-HT2B; at 30 µM; active compounds read high
[2] = system: Adenosine A1; details: at 30 µM; active compounds read high
[3] = system: Adenosine A2A; details: at 30 µM; active compounds read high
[4] = system: Adrenergic alpha1A; details: at 30 µM; active compounds read high
[5] = system: Adrenergic alpha1B; details: at 30 µM; active compounds read high
[6] = system: Adrenergic beta1; details: at 30 µM; active compounds read high
[7] = target: Alpha-2A adrenergic receptor (Homo sapiens) (UniProt P08913); details: Adrenergic alpha2A; at 30 µM; active compounds read high
Sequence of Alpha-2A adrenergic receptor (Homo sapiens) (P08913 whole entry, looked up): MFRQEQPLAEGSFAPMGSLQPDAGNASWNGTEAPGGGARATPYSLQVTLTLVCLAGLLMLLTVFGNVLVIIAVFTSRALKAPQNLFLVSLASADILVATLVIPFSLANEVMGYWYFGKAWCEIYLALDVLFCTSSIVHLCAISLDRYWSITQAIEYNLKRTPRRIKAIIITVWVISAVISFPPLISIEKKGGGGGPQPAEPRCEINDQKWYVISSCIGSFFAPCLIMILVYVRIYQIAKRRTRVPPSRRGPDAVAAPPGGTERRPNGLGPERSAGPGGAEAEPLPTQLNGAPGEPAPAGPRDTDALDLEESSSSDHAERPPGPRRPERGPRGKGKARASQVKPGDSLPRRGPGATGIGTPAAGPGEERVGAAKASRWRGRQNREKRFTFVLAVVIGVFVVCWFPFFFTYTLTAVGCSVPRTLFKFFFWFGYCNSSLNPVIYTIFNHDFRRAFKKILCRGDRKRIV

[8] = system: Alpha-2A adrenergic receptor (Homo sapiens) + Histamine H1 receptor (Homo sapiens) + Mu-type opioid receptor (Homo sapiens); details: at 30 µM; active compounds read high
[9] = target: Beta-2 adrenergic receptor (Homo sapiens) (UniProt P07550); details: Adrenergic beta2; at 30 µM; active compounds read high
Sequence of Beta-2 adrenergic receptor (Homo sapiens) (P07550 whole entry, looked up): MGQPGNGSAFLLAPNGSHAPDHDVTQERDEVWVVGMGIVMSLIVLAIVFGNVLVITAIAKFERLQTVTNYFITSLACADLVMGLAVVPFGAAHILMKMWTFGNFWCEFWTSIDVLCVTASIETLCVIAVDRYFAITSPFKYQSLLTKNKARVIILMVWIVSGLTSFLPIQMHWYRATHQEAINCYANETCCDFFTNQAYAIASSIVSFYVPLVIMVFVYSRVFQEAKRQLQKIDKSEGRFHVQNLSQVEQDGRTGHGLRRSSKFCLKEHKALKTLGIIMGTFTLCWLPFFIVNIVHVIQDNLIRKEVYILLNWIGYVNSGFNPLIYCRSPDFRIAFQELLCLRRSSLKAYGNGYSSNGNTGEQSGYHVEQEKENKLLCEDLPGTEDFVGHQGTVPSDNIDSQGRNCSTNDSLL

[10] = system: CYP450 2C19; details: at 30 µM; active compounds read high
[11] = system: Calcium Channel L-Type, Dihydropyridine; details: at 30 µM; active compounds read high
[12] = system: Cannabinoid CB1; details: at 30 µM; active compounds read high
[13] = target: Cytochrome P450 1A2 (Homo sapiens) (UniProt P05177); details: CYP450 1A2; at 30 µM; active compounds read high
Sequence of Cytochrome P450 1A2 (Homo sapiens) (P05177 whole entry, looked up): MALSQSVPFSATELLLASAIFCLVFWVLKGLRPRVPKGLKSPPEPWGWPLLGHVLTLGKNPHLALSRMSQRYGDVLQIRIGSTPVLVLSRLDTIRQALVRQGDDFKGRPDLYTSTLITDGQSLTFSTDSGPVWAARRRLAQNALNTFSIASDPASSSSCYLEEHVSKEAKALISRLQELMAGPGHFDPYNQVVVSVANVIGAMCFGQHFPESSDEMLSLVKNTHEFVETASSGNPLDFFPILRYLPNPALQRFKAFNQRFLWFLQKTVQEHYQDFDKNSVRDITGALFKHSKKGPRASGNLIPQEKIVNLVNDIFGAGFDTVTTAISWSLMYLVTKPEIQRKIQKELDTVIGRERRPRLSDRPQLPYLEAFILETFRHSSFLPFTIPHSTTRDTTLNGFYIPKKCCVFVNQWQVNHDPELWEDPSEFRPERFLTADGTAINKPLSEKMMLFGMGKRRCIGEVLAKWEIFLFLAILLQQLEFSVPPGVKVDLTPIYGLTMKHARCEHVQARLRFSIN

[14] = target: Cytochrome P450 2C9 (Homo sapiens) (UniProt P11712); details: CYP450 2C9; at 30 µM; active compounds read high
Sequence of Cytochrome P450 2C9 (Homo sapiens) (P11712 whole entry, looked up): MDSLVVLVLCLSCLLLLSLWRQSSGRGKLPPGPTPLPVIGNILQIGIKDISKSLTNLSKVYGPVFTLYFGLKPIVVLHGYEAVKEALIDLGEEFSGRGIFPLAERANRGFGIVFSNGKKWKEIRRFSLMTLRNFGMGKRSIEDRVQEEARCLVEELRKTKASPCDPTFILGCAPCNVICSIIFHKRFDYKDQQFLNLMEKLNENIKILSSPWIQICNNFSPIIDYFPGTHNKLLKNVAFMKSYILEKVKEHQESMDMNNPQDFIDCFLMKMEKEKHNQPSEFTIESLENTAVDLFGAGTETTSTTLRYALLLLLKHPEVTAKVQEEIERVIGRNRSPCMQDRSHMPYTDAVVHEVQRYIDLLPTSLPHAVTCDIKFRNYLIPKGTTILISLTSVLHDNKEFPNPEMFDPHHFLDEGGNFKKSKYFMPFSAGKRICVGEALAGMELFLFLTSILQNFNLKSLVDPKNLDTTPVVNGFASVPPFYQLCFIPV

[15] = target: Cytochrome P450 2D6 (Homo sapiens) (UniProt P10635); details: CYP450 2D6; at 30 µM; active compounds read high
Sequence of Cytochrome P450 2D6 (Homo sapiens) (P10635 whole entry, looked up): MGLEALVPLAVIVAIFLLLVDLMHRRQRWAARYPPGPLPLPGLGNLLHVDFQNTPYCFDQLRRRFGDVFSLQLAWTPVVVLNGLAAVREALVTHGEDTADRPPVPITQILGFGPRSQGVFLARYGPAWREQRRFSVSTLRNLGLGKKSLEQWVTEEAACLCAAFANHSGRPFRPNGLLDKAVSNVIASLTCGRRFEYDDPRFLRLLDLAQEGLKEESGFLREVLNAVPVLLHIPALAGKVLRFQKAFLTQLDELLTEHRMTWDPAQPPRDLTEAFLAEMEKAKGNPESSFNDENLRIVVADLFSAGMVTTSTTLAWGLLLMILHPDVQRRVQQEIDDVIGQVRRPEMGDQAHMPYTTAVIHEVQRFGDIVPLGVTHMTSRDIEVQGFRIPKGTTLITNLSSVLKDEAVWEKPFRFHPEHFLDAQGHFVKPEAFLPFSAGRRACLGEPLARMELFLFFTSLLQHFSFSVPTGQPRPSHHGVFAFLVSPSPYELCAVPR

[16] = target: Cytochrome P450 3A4 (Homo sapiens) (UniProt P08684); details: CYP450 3A4; at 30 µM; active compounds read high
Sequence of Cytochrome P450 3A4 (Homo sapiens) (P08684 whole entry, looked up): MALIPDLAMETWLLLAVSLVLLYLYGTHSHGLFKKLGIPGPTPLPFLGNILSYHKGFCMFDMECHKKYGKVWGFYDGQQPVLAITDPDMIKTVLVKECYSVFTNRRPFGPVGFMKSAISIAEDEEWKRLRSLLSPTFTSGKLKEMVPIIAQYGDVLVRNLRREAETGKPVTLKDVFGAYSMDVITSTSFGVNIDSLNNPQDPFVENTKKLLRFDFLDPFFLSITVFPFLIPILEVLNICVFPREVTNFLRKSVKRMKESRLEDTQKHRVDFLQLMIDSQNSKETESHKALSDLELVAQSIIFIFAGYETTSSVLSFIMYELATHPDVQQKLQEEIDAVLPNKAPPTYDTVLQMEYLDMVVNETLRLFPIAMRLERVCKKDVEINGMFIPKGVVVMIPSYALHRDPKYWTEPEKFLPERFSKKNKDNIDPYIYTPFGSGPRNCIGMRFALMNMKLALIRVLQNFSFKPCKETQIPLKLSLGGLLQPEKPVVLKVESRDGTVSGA

[17] = target: D(1A) dopamine receptor (Homo sapiens) (UniProt P21728); details: Dopamine D1; at 30 µM; active compounds read high
Sequence of D(1A) dopamine receptor (Homo sapiens) (P21728 whole entry, looked up): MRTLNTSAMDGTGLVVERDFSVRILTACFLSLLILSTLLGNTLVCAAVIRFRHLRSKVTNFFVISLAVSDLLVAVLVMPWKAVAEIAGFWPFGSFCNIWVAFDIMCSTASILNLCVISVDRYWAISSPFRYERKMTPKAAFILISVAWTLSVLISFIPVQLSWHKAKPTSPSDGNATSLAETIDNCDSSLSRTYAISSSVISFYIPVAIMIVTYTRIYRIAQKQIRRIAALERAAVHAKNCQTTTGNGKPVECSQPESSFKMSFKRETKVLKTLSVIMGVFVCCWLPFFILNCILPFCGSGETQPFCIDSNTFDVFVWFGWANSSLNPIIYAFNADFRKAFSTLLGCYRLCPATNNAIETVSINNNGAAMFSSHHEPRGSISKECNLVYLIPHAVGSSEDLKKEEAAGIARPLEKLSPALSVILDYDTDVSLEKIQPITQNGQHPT

[18] = system: Dopamine D2; details: at 30 µM; active compounds read high
[19] = system: GABAA; details: Central, at 30 µM, active compounds read high
[20] = system: Glutamate, NMDA; details: Phencyclidine; at 30 µM; active compounds read high
[21] = system: Histamine H1; details: at 30 µM; active compounds read high
[22] = target: Muscarinic acetylcholine receptor M2 (Homo sapiens) (UniProt P08172); details: at 30 µM, active compounds read high
Sequence of Muscarinic acetylcholine receptor M2 (Homo sapiens) (P08172 whole entry, looked up): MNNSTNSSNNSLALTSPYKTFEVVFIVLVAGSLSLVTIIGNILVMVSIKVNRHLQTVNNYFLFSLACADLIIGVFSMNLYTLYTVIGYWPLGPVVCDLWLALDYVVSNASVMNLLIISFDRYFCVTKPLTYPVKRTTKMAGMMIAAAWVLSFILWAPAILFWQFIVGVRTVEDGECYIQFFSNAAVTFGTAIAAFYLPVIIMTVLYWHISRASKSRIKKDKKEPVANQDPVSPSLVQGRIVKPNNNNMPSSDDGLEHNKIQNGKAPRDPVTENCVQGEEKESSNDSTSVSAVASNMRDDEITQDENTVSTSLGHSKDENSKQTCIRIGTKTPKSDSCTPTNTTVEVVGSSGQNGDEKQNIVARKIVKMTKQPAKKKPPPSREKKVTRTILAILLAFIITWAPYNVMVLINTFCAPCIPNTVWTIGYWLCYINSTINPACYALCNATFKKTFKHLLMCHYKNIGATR

[23] = target: Muscarinic acetylcholine receptor M3 (Homo sapiens) (UniProt P20309); details: at 30 µM, active compounds read high
[24] = system: Nicotinic Acetylcholine; details: at 30 µM; active compounds read high
[25] = system: Norepinephrine Transporter (NET); details: at 30 µM; active compounds read high
[26] = system: Opiate mu (OP3, MOP); details: at 30 µM; active compounds read high
[27] = system: Prostanoid EP4; details: at 30 µM; active compounds read high
[28] = system: Sigma 1; details: at 30 µM; active compounds read high
[29] = system: Sodium Channel, Site 2; details: at 30 µM; active compounds read high
[30] = target: Voltage-gated inwardly rectifying potassium channel KCNH2 (Homo sapiens) (UniProt Q12809); details: Potassium Channel hERG; at 30 µM; active compounds read high
Sequence of Voltage-gated inwardly rectifying potassium channel KCNH2 (Homo sapiens) (Q12809 whole entry, looked up): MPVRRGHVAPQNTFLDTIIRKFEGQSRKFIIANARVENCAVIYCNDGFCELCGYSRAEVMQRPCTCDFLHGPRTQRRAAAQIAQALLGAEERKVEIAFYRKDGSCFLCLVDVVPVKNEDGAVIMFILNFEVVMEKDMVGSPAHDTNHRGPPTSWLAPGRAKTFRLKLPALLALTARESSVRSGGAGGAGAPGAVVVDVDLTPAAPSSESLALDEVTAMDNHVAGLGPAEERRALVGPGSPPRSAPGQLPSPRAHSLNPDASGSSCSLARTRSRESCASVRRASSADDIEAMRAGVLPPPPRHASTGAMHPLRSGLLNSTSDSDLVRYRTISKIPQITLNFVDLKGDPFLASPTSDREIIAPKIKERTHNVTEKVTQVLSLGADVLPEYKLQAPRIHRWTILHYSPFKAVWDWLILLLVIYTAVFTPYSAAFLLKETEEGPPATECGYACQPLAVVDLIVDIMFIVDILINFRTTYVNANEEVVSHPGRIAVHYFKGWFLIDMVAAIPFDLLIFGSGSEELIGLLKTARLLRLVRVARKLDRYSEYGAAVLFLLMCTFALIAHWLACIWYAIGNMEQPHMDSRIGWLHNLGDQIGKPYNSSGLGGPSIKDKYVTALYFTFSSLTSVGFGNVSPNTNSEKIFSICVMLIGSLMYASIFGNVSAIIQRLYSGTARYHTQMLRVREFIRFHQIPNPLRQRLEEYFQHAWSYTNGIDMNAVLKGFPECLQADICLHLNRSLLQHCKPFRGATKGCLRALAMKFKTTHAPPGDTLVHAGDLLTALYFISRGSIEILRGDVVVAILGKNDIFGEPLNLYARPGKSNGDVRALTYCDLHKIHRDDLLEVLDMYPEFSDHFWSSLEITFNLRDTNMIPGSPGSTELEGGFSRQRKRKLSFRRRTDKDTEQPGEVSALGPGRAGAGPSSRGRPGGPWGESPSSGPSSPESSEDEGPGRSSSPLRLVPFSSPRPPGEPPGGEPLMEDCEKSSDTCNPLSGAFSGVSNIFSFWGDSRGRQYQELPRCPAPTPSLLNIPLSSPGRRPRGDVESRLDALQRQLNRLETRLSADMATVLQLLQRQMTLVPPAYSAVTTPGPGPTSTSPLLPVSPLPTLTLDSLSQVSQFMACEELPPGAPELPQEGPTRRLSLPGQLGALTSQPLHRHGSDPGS

SMILES: COCCN=C1S/C(=C\c2cc(C)n(-c3ccc(F)cc3F)c2C)C(=O)N1C
- inhibition [1]: 66%
- inhibition [2]: 29% (inactive)
- inhibition [3]: 26% (inactive)
- inhibition [4]: 40% (inactive)
- inhibition [5]: 42% (inactive)
- inhibition [6]: 39% (inactive)
- inhibition [7]: 40% (inactive)
- inhibition [8]: 11% (inactive)
- inhibition [9]: 6% (inactive)
- inhibition [10]: -24% (inactive)
- inhibition [11]: 64%
- inhibition [12]: 65%
- inhibition [13]: 14% (inactive)
- inhibition [14]: -28% (inactive)
- inhibition [15]: 8% (inactive)
- inhibition [16]: 56%
- inhibition [17]: 27% (inactive)
- inhibition [18]: 12% (inactive)
- inhibition ([19]; Flunitrazepam): -8% (inactive)
- inhibition ([19]; Muscimol): 3% (inactive)
- inhibition [20]: 6% (inactive)
- inhibition [21]: 52%
- inhibition [22]: 13% (inactive)
- inhibition [23]: 23% (inactive)
- inhibition [24]: -53%
- inhibition [25]: 71%
- inhibition [26]: 69%
- inhibition [27]: 29% (inactive)
- inhibition [28]: 2% (inactive)
- inhibition [29]: 59%
- inhibition [30]: 29% (inactive)
